Our source for the solubility values is ChEMBL document CHEMBL3864173, “Design and Synthesis of Novel Macrocyclic Mer Tyrosine Kinase Inhibitors” (ACS Med Chem Lett, 2016).

A short description of this data set: Solubility of the compound at pH 7.4. Conditions: buffer. It counts as physicochemical.

As a reminder, the solubility is the concentration that dissolves in the medium under given conditions. A higher solubility goes with much dissolved substance. As for `CCCCNc1ncc2c(-c3ccc(CN4CCN(C)CC4)cc3)cn([C@H]3CC[C@H](O)CC3)c2n1.Cl`, the solubility is 47 mg/mL.
